The OligoGym collection
“And” between values parts separate entries of the source, which are not always exact repeats. Equal entries are not always repeated. After the bases stand the sugars from the 5' end (letter, count) and the backbone: PS all phosphorothioate, else s phosphorothioate and o phosphodiester by linkage. Methylation of C is not given here. e = 2'-O-(2-methoxyethyl) (MOE); k = constrained ethyl (cEt); d = 2'-deoxy (DNA)

Biological target: MALAT1
Details: ASO, A431, 0.005 µM

Sequence	target mRNA inhibition
CAACATTTGGCCTACT (sugars k3 d10 k3, PS)	17%
TAATCATACTCCAGTC (sugars k3 d10 k3, PS)	-3%
CAGCCTATAAGGACAG (sugars k3 d10 k3, PS)	22%
CACAGCTCGGGCGAGG (sugars k3 d10 k3, PS)	25%
GCAGGGACGGTTGAGA (sugars k3 d10 k3, PS)	8%
ACATGCCAGTTACTCC (sugars k3 d10 k3, PS)	39%
ATTAGTAGTCAAAGCA (sugars k3 d10 k3, PS)	20%
TCTCTAACCCAGTTTG (sugars k3 d10 k3, PS)	16%
CGCCGCAGGGATTTGA (sugars k3 d10 k3, PS)	19%
TGATCATAATCTCCCA (sugars k3 d10 k3, PS)	43%
CCGCCTCTTAAAGCAC (sugars k3 d10 k3, PS)	-9%
CAACCCACCAAAGACC (sugars k3 d10 k3, PS)	2%
ATCTTAGTAACCTATT (sugars k3 d10 k3, PS)	17%
GAAGAGCCAAGCACTC (sugars k3 d10 k3, PS)	-9%
CAGAGTTTGAGTGGTT (sugars k3 d10 k3, PS)	16%
AGTGTTTACACTGCTC (sugars k3 d10 k3, PS)	22%
AATCAAGTCAAGCTCC (sugars k3 d10 k3, PS)	14%
CTTGACCTTAGGATAA (sugars k3 d10 k3, PS)	44%
AGAAACCTACAACACC (sugars k3 d10 k3, PS)	-6%
ACAGTAGGTATAGTTT (sugars k3 d10 k3, PS)	24%
CTCGCCTCCTCCGTGT (sugars k3 d10 k3, PS)	10%
TCTACCGTTTTTCAGC (sugars k3 d10 k3, PS)	26%
AGCACATCATGCTATT (sugars k3 d10 k3, PS)	26%

Sequence	target mRNA inhibition
AAGATGCTAGCTTGGC (sugars k3 d10 k3, PS)	24%
GCCTATCTTCTCCAGT (sugars k3 d10 k3, PS)	27%
GCTACTGGCTGCATCG (sugars k3 d10 k3, PS)	43%
CCCCACGGCCCGCACG (sugars k3 d10 k3, PS)	-9%
TAGTTTACCACCTTTT (sugars k3 d10 k3, PS)	15%
GAATGTTTCTTGTCAC (sugars k3 d10 k3, PS)	43%
GGATTCTAGACAGACC (sugars k3 d10 k3, PS)	44%
TTCGATCACCTTCCGC (sugars k3 d10 k3, PS)	12%
TGCACTAAAGATCACT (sugars k3 d10 k3, PS)	37%
TTTCATCCTACCACTC (sugars k3 d10 k3, PS)	27%
CGTGAAAACCCACTCT (sugars k3 d10 k3, PS)	-6%
TTACCATAAGTAAGTT (sugars k3 d10 k3, PS)	-20%
CATTTATTTCGGCTTC (sugars k3 d10 k3, PS)	66% and 90%
CGTGAGAACTGCTCTA (sugars k3 d10 k3, PS)	37%
CTTTAAGCCTTCGGTG (sugars k3 d10 k3, PS)	-3%
TTTAAAGTAGACCAAC (sugars k3 d10 k3, PS)	-49%
CGTGTGGAAAGATTTG (sugars k3 d10 k3, PS)	0%
AGGCAAACGAAACATTGGCA (sugars e5 d10 e5, PS)	3% and 12%
TCCCACCCAGCATTAC (sugars k3 d10 k3, PS)	27%
TCCTCAAGCTCCGCCT (sugars k3 d10 k3, PS)	23%
TTACTCTAATCACTGT (sugars k3 d10 k3, PS)	33%
CTCTCATTTATTTCGG (sugars k3 d10 k3, PS)	59% and 84%
